Results reported in patent publication US5902794A (priority 1997, dated 1999).

Tests used:
MDA-MB-231 = test: growth of MDA-MB-231 cells; assay type: cell-based; conditions: Homo sapiens, MDA-MB-231, 72 h; 10 microM, 3 days
Description: (§1) M is marker proteins of known molecular weight.
(§2) All breast cancer cell lines were grown in IMEM supplemented with 10% fetal bovine serum, 20 mM HEPES, penicillin-streptomycin, and extra glutamine. Colon carcinoma cell lines were grown in EMEM supplemented with 10% FBS, EMEM, NEAA, HEPES 20 mM, extra glutamine, and penicillin-streptomycin. The cells were grown at 37° C. in humidified incubators in an atmosphere of 5% CO2.
(§3) For cell growth experiments, 2-3×10^5 cells/60 mm dish were seeded, and 24 hours later (Day 0), the medium was removed, and fresh medium and the additives were added then and every 48 hours thereafter The compounds of the present invention were added using 100× concentrated stock solutions. At desired times, cell counts in duplicate were performed on a Coulter counter after harvesting the cells with gentle trypsinization.

R^I receptor = conditions: cited from earlier work
[1] = tested on: R^II cAMP receptor protein (MDA-MB-231); test: photoaffinity labelling of R^II cAMP receptor protein, MDA-MB-231; assay type: cell-based, human; conditions: 10 microM, 3 days; relative to control R^I
Description: as §1
(§4) The incubations were carried out at 23° C. for 60 minutes in 96-well immunoplates. The reaction mixtures were then irradiated for 30 seconds at 254 nm, placing a Mineralite UVS-11 hand lamp directly onto the plate. The samples were mixed with 25 microliters of 3× sample buffer (3% SDS, 15% beta-mercaptoethanol, 30 mM Tris, 30% glycerol, 1% bromophenol blue saturated solution), boiled for 3 minutes, and centrifuged at 700×g for five minutes. The samples containing 50-100 micrograms of protein were subjected to 0.05% SDS-12% PAGE. The gels were fixed, dried, and exposed to X-ray films overnight. The protein concentrations were determined by the method of Lowry et al., (J. Biol. Chem. 193: 265-275, 1951) with bovine serum albumin as standard.
(§5) The levels of the receptor proteins are expressed relative to the R^I level in the untreated control cells of MDA-MB-231 and LS-174T, which are each set equal to 1.0 O.D.; the scale was expanded to differentiate the lower intensity bands.

c-myc protein = c-myc protein level, Western blotting (FIG. 9B); assay type: cell-based, human; conditions: 5 micromol/L, three days
Description: The cells were grown in suspension culture in RPMI 1640 medium supplemented with 10% fetal bovine serum, penicillin (50 U/ml), streptomycin ([…]), 10 mmol/L HEPES buffer, and extra glutamine. […] Surface antigen analysis of HL-60 cells was performed by flow cytometry using a panel of monoclonal antibodies reactive with either myeloid cells or monocytic cells. Terminal deoxynucleotidyl transferase (TdT) was assayed by an immunoperoxidase method using a TdT fluorescence kit. Western blotting of c-myc protein was performed using c-myc antibody 15206D11 (Scripps Clinic and Research Foundation, LaJolla, Calif.).
M marker proteins of known molecular weight. […] The resulting supernatants were used as cell lysates. […] ND=nondetectable.

DMBA-1 = test: growth of transplantable DMBA-1 rat mammary carcinoma; assay type: in vivo; conditions: pellet with 10 mg cAMP analogue, day 7
Description: DMBA-1, a variant of primary hormonedependent DMBA tumor,
hormoneindependent and transplantable.
(§6) 8Cl-cAMP and DBcAMP were given as a 20mg pellet consisting of 10 mg of […]

[2] = tested on: R^I and R^II cAMP receptor proteins in breast (MDA-MB-231) and colon (LS-174T) cancer cells; test: R^I and R^II cAMP receptor protein levels in breast and colon cancer lines (FIG. 6); assay type: cell-based, human
Description: as §1, §4

[3] = tested on: mammary tumor inductions by DMBA; test: DMBA mammary tumor induction (FIG. 8); assay type: in vivo; conditions: 10 mg pellet one day before DMBA
[4] = tested on: breast and colon cancer cell lines; test: cell cycle progression of breast and colon cancer cell lines; assay type: cell-based, human; conditions: vs untreated control cells
Description: DNA histograms were generated on FACS II by using the DNA intercalating dye propidium iodide as described by Braylan et al. (Cytometry 2: 337-343, 1982). The percentage of cells in each cycle phase was calculated by using a PDP-11/34 computer and software as described by Neckers et al. (Mol. Cell. Biol. 6: 4244-4250, 1986).
A determination was made whether the reduced cell proliferation observed in the cancer cell lines after treatment with the compounds of the present invention is due to a specific block in one phase of the cell cycle.

[5] = tested on: transplantable DMBA-1 and MNA-2 rat mammary carcinomas; test: short-term assays with transplantable rat mammary carcinomas; assay type: in vivo; conditions: 10-mg pellet, within one week
[6] = tested on: R^I cAMP receptor protein (LS-174T); test: photoaffinity labelling of R^I cAMP receptor protein, LS-174T; assay type: cell-based, human; conditions: 10 microM, 3 days; control 1.0
Description: as §1, §4, §5

[7] = tested on: R^II cAMP receptor protein (LS-174T); test: photoaffinity labelling of R^II cAMP receptor protein, LS-174T; assay type: cell-based, human; conditions: 10 microM, 3 days; relative to control R^I
Description: as §1, §4, §5

[8] = tested on: DMBA-induced mammary carcinomas; test: in vivo growth of DMBA-induced mammary carcinomas in rats; parameters: species or system rat
Description: […] |DMBA-induced mammary carcinomas in rats […] | 10 mg. cholesterol), was implanted on day 0 and day 14.

LS-174T = test: growth of LS-174T human colon carcinoma in nude mice; assay type: in vivo; conditions: nude mouse, pellet with 10 mg cAMP analogue, day 7
Description: LS174T, human colon cancer line was s.c. grown in nude mice and a solid
tumor, transplantable, was obtained.
as §6

[9] = tested on: HT-29 colon cancer cell line
[10] = tested on: breast and colon cancer cells; test: effect on cell morphology; assay type: cell-based, human
Source text: The photographs were taken on Day 4, ×160.
Furthermore, the synergistic growth inhibitory effect of C-6 and C-8 analogue combinations was also reflected in the change in the cell morphology.

[11] = tested on: MCF-7 ras breast cancer cell line; test: synergistic growth inhibition by C-6 and C-8 analogue combination; assay type: cell-based; conditions: Homo sapiens, MCF7; alone, 1.0 μM; read-out: percentage growth inhibition of analogue added alone
Description: as §2, §3
Synergism quotient was defined as the net growth inhibitory effect of the analogue combination divided by the sum of the net analogue effects on growth inhibition A quotient of >1 indicates a synergistic effect, while a quotient of <1 indicates an antagonistic effect.
Synergism of growth inhibition was determined by treatment of
cells with C-6 analogues and C-8 analogues alone and in combination at
Day 0 and Day 2 and counting the cell number at Day 4

[12] = tested on: R^I cAMP receptor protein (MDA-MB-231); test: photoaffinity labelling of R^I cAMP receptor protein, MDA-MB-231; assay type: cell-based, human; conditions: 10 microM, 3 days; control 1.0
Description: as §1, §4, §5

Compound: Nc1ncnc2c1nc(Cl)n2[C@@H]1O[C@@H]2COP(=O)(O)O[C@H]2[C@H]1O [8-Cl-cAMP]
- activity at 10 µM (MDA-MB-231): 45%
- site selectivity of binding, R^I (R^I receptor): binds to site 2
- R^II relative level [1]: 0.15 ± 0.01
- c-myc protein level, in words (c-myc protein): marked reduction of c-myc protein level
- Change in mean tumor volume (DMBA-1): 1.60 cm^3
- increase in the ratio of R^II to R^I ([2]; densitometry): two- to three-fold increase
- 48,000 R^I receptor protein, in words ([2]; three days, 10 microM): concomitant decrease
- 52,000 MW (R^II) receptor protein, in words ([2]; three days, 10 microM): increased appreciably
- reduction in the total number of tumors produced [3]: 70%
- fractions of cells in G1, S and G2/M phases, in words [4]: not appreciably different
- growth inhibition [5]: 40-50%
- R^I relative level [6]: 0.20 ± 0.02
- R^II relative level [7]: 0.25 ± 0.02
- tumor growth, in words ([8]; 10 mg pellet implanted twice every two weeks): completely stopped tumor growth
- tumor regression within 30 days ([8]; within 30 days): ~100%
- Change in mean tumor volume (LS-174T): 0.58 cm^3
- Change in mean tumor volume (%) (LS-174T; none = 100): 60%
- 8-Cl-adenosine in cell extracts [9]: no 8-Cl-adenosine was present
- 8-Cl-adenosine in cell extracts or medium [9]: 8-Cl-adenosine was not detected
- 8-Cl-adenosine in medium [9]: no 8-Cl-adenosine was present
- cell penetration of intact compound [9]: penetrated the cell
- morphological change ([10]; 1 microM alone, four days): did not induce a change in the cell morphology
- morphological change ([10]; 50 microM, four to five days): characteristic morphological change
- inhibition at 1 µM [11]: 20%
- R^I relative level [12]: 0.25 ± 0.03
